US7772241B2, “Variolin derivatives and their use as antitumor agents” (Pharma Mar S.A., priority 2001, dated 2010)

How the values were obtained:
K-562 = experiment: Inhibition of cells growth by colorimetric (SRB) assay, K-562; conditions: for GI50 / CC50: Homo sapiens, K562, 48 h; for GI50: read-out: GI50 K-562, SRB assay, 48 hours exposure; for CC50: read-out: LC50 K-562, SRB assay, 48 hours exposure; for TGI K-562: SRB assay, 48 hours exposure
Outline: (§1)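 Human tumour cells seeded at 5×10^3/well in RPMI 1640 10% FBS, attached 18 h, then exposed 48 h to samples at 10 to 10^−8 μg/ml in DMSO/EtOH/PBS (0.5:0.5:99). Growth read by SRB staining after TCA fixation, OD 490 nm, triplicate wells; GI, TGI and LC derived.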

A-549 = experiment: Inhibition of cells growth by colorimetric (SRB) assay, A-549; conditions: for GI50 / CC50: Homo sapiens, A549, 48 h; for GI50: read-out: GI50 A-549, SRB assay, 48 hours exposure; for CC50: read-out: LC50 A-549, SRB assay, 48 hours exposure; for TGI A-549: SRB assay, 48 hours exposure
Outline: as §1

SK-MEL-28 = experiment: Inhibition of cells growth by colorimetric (SRB) assay, SK-MEL-28; conditions: for GI50 / CC50: Homo sapiens, SK-MEL-28, 48 h; for GI50: read-out: GI50 MEL-28, SRB assay, 48 hours exposure; for CC50: read-out: LC50 MEL-28, SRB assay, 48 hours exposure; for TGI MEL-28: SRB assay, 48 hours exposure
Outline: as §1

HT-29 = experiment: Inhibition of cells growth by colorimetric (SRB) assay, HT-29; conditions: for GI50 / CC50: Homo sapiens, HT-29, 48 h; for GI50: read-out: GI50 HT-29, SRB assay, 48 hours exposure; for CC50: read-out: LC50 HT-29, SRB assay, 48 hours exposure; for TGI HT-29: SRB assay, 48 hours exposure
Outline: as §1

LoVo = experiment: Inhibition of cells growth by colorimetric (SRB) assay, LoVo; conditions: for GI50 / CC50: Homo sapiens, LoVo, 48 h; for GI50: read-out: GI50 LOVO, SRB assay, 48 hours exposure; for CC50: read-out: LC50 LOVO, SRB assay, 48 hours exposure; for TGI LOVO: SRB assay, 48 hours exposure
Outline: as §1

LoVo-Dox = experiment: Inhibition of cells growth by colorimetric (SRB) assay, LoVo-Dox; conditions: for GI50 / CC50: Homo sapiens, 48 h; for GI50: read-out: GI50 LOVO-DOX, SRB assay, 48 hours exposure; for CC50: read-out: LC50 LOVO-DOX, SRB assay, 48 hours exposure; for TGI LOVO-DOX: SRB assay, 48 hours exposure
Outline: as §1

DU-145 = experiment: Inhibition of cells growth by colorimetric (SRB) assay, DU-145; conditions: for GI50 / CC50: Homo sapiens, DU-145, 48 h; for GI50: read-out: GI50 DU-145, SRB assay, 48 hours exposure; for CC50: read-out: LC50 DU-145, SRB assay, 48 hours exposure; for TGI DU-145: SRB assay, 48 hours exposure
Outline: as §1

LNCaP = experiment: Inhibition of cells growth by colorimetric (SRB) assay, LNCaP; conditions: for GI50 / CC50: Homo sapiens, LNCaP, 48 h; for GI50: read-out: GI50 LN-caP, SRB assay, 48 hours exposure; for CC50: read-out: LC50 LN-caP, SRB assay, 48 hours exposure; for TGI LN-caP: SRB assay, 48 hours exposure
Outline: as §1

SK-BR-3 = experiment: Inhibition of cells growth by colorimetric (SRB) assay, SK-BR-3; conditions: for GI50 / CC50: Homo sapiens, SK-BR-3, 48 h; for GI50: read-out: GI50 SK-BR-3, SRB assay, 48 hours exposure; for CC50: read-out: LC50 SK-BR-3, SRB assay, 48 hours exposure; for TGI SK-BR-3: SRB assay, 48 hours exposure
Outline: as §1

IGROV-1 = experiment: Inhibition of cells growth by colorimetric (SRB) assay, IGROV-1; conditions: for GI50 / CC50: Homo sapiens, IGROV-1, 48 h; for GI50: read-out: GI50 IGROV, SRB assay, 48 hours exposure; for CC50: read-out: LC50 IGROV, SRB assay, 48 hours exposure; for TGI IGROV: SRB assay, 48 hours exposure
Outline: as §1

IGROV-ET = experiment: Inhibition of cells growth by colorimetric (SRB) assay, IGROV-ET; conditions: for GI50 / CC50: Homo sapiens, 48 h; for GI50: read-out: GI50 IGROV-ET, SRB assay, 48 hours exposure; for CC50: read-out: LC50 IGROV-ET, SRB assay, 48 hours exposure; for TGI IGROV-ET: SRB assay, 48 hours exposure
Outline: as §1

SK-OV-3 = experiment: Inhibition of cells growth by colorimetric (SRB) assay, SK-OV-3; conditions: for GI50 / CC50: Homo sapiens, SK-OV-3, 48 h; for GI50: read-out: GI50 SKOV-3, SRB assay, 48 hours exposure; for CC50: read-out: LC50 SKOV-3, SRB assay, 48 hours exposure; for TGI SKOV-3: SRB assay, 48 hours exposure
Outline: as §1

PANC-1 = experiment: Inhibition of cells growth by colorimetric (SRB) assay, PANC-1; conditions: for GI50 / CC50: Homo sapiens, PANC-1, 48 h; for GI50: read-out: GI50 PANC-1, SRB assay, 48 hours exposure; for CC50: read-out: LC50 PANC-1, SRB assay, 48 hours exposure; for TGI PANC-1: SRB assay, 48 hours exposure
Outline: as §1

[1] = Inhibition of cells growth by colorimetric (SRB) assay, HMEC1; conditions: human, HMEC1 cells, LC50 H-MEC-1, SRB assay, 48 hours exposure
HMEC1 = experiment: as above; conditions: for GI50: Homo sapiens, HMEC-1, 48 h, read-out: GI50 H-MEC-1, SRB assay, 48 hours exposure; for TGI H-MEC-1: SRB assay, 48 hours exposure, in M (unit assumed)

Question: For C[S+]([O-])c1nccc(-c2c3c(Cl)ccnc3n3c(N)nccc23)n1 (stereo not drawn) [Compound 110], which GI50 (K-562) is on record?
Answer: Its GI50 is 9.92 µM.

Question: What about the CC50 (K-562) of the same molecule?
Answer: Its CC50 is at least 27.9 µM.

Question: What about the “TGI K-562” value (K-562) of the same molecule?
Answer: The value was 2.79E−05.

Question: What about the GI50 (A-549) of the same molecule?
Answer: The GI50 was 11 µM.

Question: What about the CC50 (A-549) of the same molecule?
Answer: Its CC50 is at least 27.9 µM.

Question: And the “TGI A-549” value (A-549)?
Answer: The value was 2.79E−05.

Question: What about the GI50 (SK-MEL-28) of the same molecule?
Answer: Its GI50 is 5.55 µM.

Question: What about the CC50 (SK-MEL-28) of the same molecule?
Answer: Its CC50 is at least 27.9 µM.

Question: What about the “TGI MEL-28” value (SK-MEL-28) of the same molecule?
Answer: Its value is 2.79E−05.

Question: What about the GI50 (HT-29) of the same molecule?
Answer: The GI50 was 4.15 µM.

Question: And the CC50 (HT-29)?
Answer: The CC50 was at least 27.9 µM.

Question: And the “TGI HT-29” value (HT-29)?
Answer: The value was 2.79E−05.

Question: And the GI50 (LoVo)?
Answer: Its GI50 is 1.38 µM.

Question: And the CC50 (LoVo)?
Answer: The CC50 was at least 27.9 µM.

Question: What about the “TGI LOVO” value (LoVo) of the same molecule?
Answer: Its value is 6.21E−06.

Question: What about the GI50 (LoVo-Dox) of the same molecule?
Answer: The GI50 was 2.04 µM.

Question: And the CC50 (LoVo-Dox)?
Answer: The CC50 was at least 27.9 µM.

Question: What about the “TGI LOVO-DOX” value (LoVo-Dox) of the same molecule?
Answer: The value was 1.21E−05.

Question: And the GI50 (DU-145)?
Answer: Its GI50 is 2.03 µM.

Question: What about the CC50 (DU-145) of the same molecule?
Answer: Its CC50 is at least 27.9 µM.

Question: What about the “TGI DU-145” value (DU-145) of the same molecule?
Answer: Its value is 8.97E−06.

Question: And the GI50 (LNCaP)?
Answer: The GI50 was 1.45 µM.

Question: What about the CC50 (LNCaP) of the same molecule?
Answer: The CC50 was 16.7 µM.

Question: And the “TGI LN-caP” value (LNCaP)?
Answer: The value was 4.71E−06.

Question: What about the GI50 (SK-BR-3) of the same molecule?
Answer: Its GI50 is 0.92 µM.

Question: What about the CC50 (SK-BR-3) of the same molecule?
Answer: Its CC50 is 11.6 µM.

Question: And the “TGI SK-BR-3” value (SK-BR-3)?
Answer: Its value is 1.98E−06.

Question: And the GI50 (IGROV-1)?
Answer: Its GI50 is 14.3 µM.

Question: What about the CC50 (IGROV-1) of the same molecule?
Answer: The CC50 was at least 27.9 µM.

Question: What about the “TGI IGROV” value (IGROV-1) of the same molecule?
Answer: The value was 2.79E−05.

Question: And the GI50 (IGROV-ET)?
Answer: The GI50 was 10.9 µM.

Question: What about the CC50 (IGROV-ET) of the same molecule?
Answer: The CC50 was at least 27.9 µM.

Question: What about the “TGI IGROV-ET” value (IGROV-ET) of the same molecule?
Answer: The value was 2.79E−05.

Question: What about the GI50 (SK-OV-3) of the same molecule?
Answer: Its GI50 is 11.9 µM.

Question: And the CC50 (SK-OV-3)?
Answer: Its CC50 is at least 27.9 µM.

Question: What about the “TGI SKOV-3” value (SK-OV-3) of the same molecule?
Answer: Its value is 2.79E−05.

Question: And the GI50 (PANC-1)?
Answer: Its GI50 is 14.5 µM.

Question: And the CC50 (PANC-1)?
Answer: The CC50 was at least 27.9 µM.

Question: And the “TGI PANC-1” value (PANC-1)?
Answer: Its value is 2.79E−05.

Question: And the CC50 at 48 h [1]?
Answer: The CC50 at 48 h was at least 27.9 µM.

Question: And the GI50 (HMEC1)?
Answer: The GI50 was 1.7 µM.

Question: And the “TGI H-MEC-1” value (HMEC1)?
Answer: The value was 1.08E−05.

Question: What does the source list for CS(=O)(=O)c1nccc(-c2c3c(Cl)ccnc3n3c(N)nccc23)n1 [Compound 111]?
Answer: GI50 (K-562): 7.26 µM; CC50 (K-562): 26.7 µM; TGI K-562 (K-562): 1.59E−05; GI50 (A-549): 4.35 µM; CC50 (A-549): 26.7 µM; TGI A-549 (A-549): 1.30E−05; GI50 (SK-MEL-28): 1.25 µM; CC50 (SK-MEL-28): 15.7 µM; TGI MEL-28 (SK-MEL-28): 5.15E−06; GI50 (HT-29): 5.34 µM; CC50 (HT-29): 26.7 µM; TGI HT-29 (HT-29): 1.66E−05; GI50 (LoVo): 1.54 µM; CC50 (LoVo): 26.7 µM; TGI LOVO (LoVo): 6.99E−06; GI50 (LoVo-Dox): 1.51 µM; CC50 (LoVo-Dox): 26.7 µM; TGI LOVO-DOX (LoVo-Dox): 7.07E−06; GI50 (DU-145): 1.94 µM; CC50 (DU-145): 16.8 µM; TGI DU-145 (DU-145): 6.40E−06; GI50 (LNCaP): 4.3 µM; CC50 (LNCaP): 19.9 µM; TGI LN-caP (LNCaP): 9.26E−06; GI50 (SK-BR-3): 4.35 µM; CC50 (SK-BR-3): 21.3 µM; TGI SK-BR-3 (SK-BR-3): 9.69E−06; GI50 (IGROV-1): 3.55 µM; CC50 (IGROV-1): 25.9 µM; TGI IGROV (IGROV-1): 9.60E−06; GI50 (IGROV-ET): 3.87 µM; CC50 (IGROV-ET): 26.7 µM; TGI IGROV-ET (IGROV-ET): 1.10E−05; GI50 (SK-OV-3): 2.05 µM; CC50 (SK-OV-3): 21.8 µM; TGI SKOV-3 (SK-OV-3): 6.88E−06; GI50 (PANC-1): 3.07 µM; CC50 (PANC-1): 24.6 µM; TGI PANC-1 (PANC-1): 8.70E−06; CC50 at 48 h [1]: 0.603 µM; GI50 (HMEC1): 0.00108 µM; TGI H-MEC-1 (HMEC1): 1.53E−08
